Where two headings read alike, the source gives them in different places.
Legend:
[1] = test system: barnyardgrass; experiment: Test A pre-/postemergence herbicide test; type: in vivo, Echinochloa crus-galli; conditions: Echinochloa crus-galli, 240 h; for pest or weed control at 500 g/ha: 500 g ai/ha; for pest or weed control at 2000 g/ha: 2000 g ai/ha
In short: (§1)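 Greenhouse injury scoring (0–100, complete control = 100) at approximately ten days follows simultaneous pre- and postemergence application. Soil received a directed spray after seeding; seedlings of 2–10 cm at the one- to two-leaf stage were sprayed to runoff.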

[2] = test system: morningglory; experiment: Test A pre-/postemergence herbicide test; type: in vivo, Ipomoea spp.; conditions: Ipomoea, 240 h; for pest or weed control at 500 g/ha: 500 g ai/ha; for pest or weed control at 2000 g/ha: 2000 g ai/ha
In short: as §1

[3] = test system: bermudagrass; experiment: Test C pre-/postemergence herbicide test; type: in vivo, Cynodon dactylon
In short: (§2)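 Pre/post spray; non-phytotoxic solvent + surfactant. Post-timing 1–4 leaves, 2–18 cm. Read-out: visual % control vs untreated, day 12–14, greenhouse.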

[4] = test system: corn; experiment: Test C pre-/postemergence herbicide test; type: in vivo, Zea mays
In short: as §2

[5] = test system: large crabgrass; experiment: Test C pre-/postemergence herbicide test; type: in vivo, Digitaria sanguinalis
In short: as §2

[6] = test system: giant foxtail; experiment: Test C pre-/postemergence herbicide test; type: in vivo, Setaria faberi
In short: as §2

[7] = test system: kochia; experiment: Test C pre-/postemergence herbicide test; type: in vivo, Kochia scoparia
In short: as §2

[8] = test system: morningglory; experiment: Test C pre-/postemergence herbicide test; type: in vivo, Ipomoea coccinea
In short: as §2

[9] = test system: common ragweed; experiment: Test C pre-/postemergence herbicide test; type: in vivo, Ambrosia elatior
In short: as §2

[10] = test system: common (oilseed) sunflower; experiment: Test C pre-/postemergence herbicide test; type: in vivo, Helianthus annuus
In short: as §2

[11] = test system: rice; experiment: Test C flooded paddy test; type: in vivo, Oryza sativa; conditions: Oryza sativa
In short: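 Postemergence sprays applied to plants 2 to 18 cm tall (1- to 4-leaf stage); paddy species grown to 2-leaf stage under flooding. After 12 to 14 days in greenhouse, visual rating versus untreated controls on 0–100 scale (0 no effect, 100 complete control).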

[12] = test system: smallflower umbrella sedge; experiment: Test C flooded paddy test; type: in vivo, Cyperus difformis; conditions: Cyperus difformis
[13] = test system: ducksalad; experiment: Test C flooded paddy test; type: in vivo, Heteranthera limosa; conditions: Heteranthera limosa
[14] = post-emergence, Postemergence, 0 to 100 scale, 0 no effect, 100 complete control, read-out: Plant response rating, Barnyardgrass
[15] = post-emergence, Postemergence, 0 to 100 scale, 0 no effect, 100 complete control, read-out: Plant response rating, Morningglory
[16] = Preemergence, 500 g ai/ha, scale 0 to 100, 0 no effect, 100 complete control

CCn1nc(C(C)(C)C)cc1C(=O)Nc1cc(C(=O)N(C)C)ccc1F [Compound 6, N-[5-[(dimethylamino)carbonyl]-2-fluorophenyl]-3-(1,1-dimethylethyl)-1-ethyl-1H-pyrazole-5-carboxamide]
pest or weed control at 500 g/ha [1, 14]: 80%
pest or weed control at 2000 g/ha [1, 14]: 90%
pest or weed control at 500 g/ha ([1]; pre-emergence, Preemergence, visual rating, 0 to 100 scale (0 no effect, 100 complete control), read-out: Barnyardgrass plant response rating): 100%
pest or weed control at 2000 g/ha ([1]; pre-emergence, Preemergence, 0 to 100 scale, 0 no effect, 100 complete control, read-out: Barnyardgrass plant response rating): 100%
pest or weed control at 500 g/ha [2, 15]: 10%
pest or weed control at 2000 g/ha [2, 15]: 30%
pest or weed control at 500 g/ha ([2]; pre-emergence, Preemergence, visual rating, 0 to 100 scale (0 no effect, 100 complete control), read-out: Morningglory plant response rating): 45%
pest or weed control at 2000 g/ha ([2]; pre-emergence, Preemergence, 0 to 100 scale, 0 no effect, 100 complete control, read-out: Morningglory plant response rating): 80%
Plant response rating (0 = no effect, 100 = complete control), Bermudagrass ([3]; 62 g ai/ha, preemergence): 80
pest or weed control at 125 g/ha ([3]; Cynodon dactylon, pre-emergence, 312 h, 125 g ai/ha, scale 0-100, read-out: Plant response rating, Bermudagrass): 90%
pest or weed control at 250 g/ha ([3]; Cynodon dactylon, pre-emergence, 312 h, 250 g ai/ha, scale 0 to 100 (0 no effect, 100 complete control), visual, 12 to 14 days, read-out: Plant response rating, Bermudagrass): 90%
pest or weed control at 500 g/ha ([3]; Cynodon dactylon, pre-emergence, 312 h, Preemergence, 500 g ai/ha, scale 0 to 100, 0 no effect, 100 complete control, read-out: Bermudagrass plant response rating): 90%
Plant response rating (0 = no effect, 100 = complete control), Corn ([4]; 62 g ai/ha, preemergence): 60
Corn plant response rating [4, 16]: 80
Corn plant response rating (crop injury, 0 = no effect, 100 = complete kill) at 125 g/ha ([4]; Zea mays, pre-emergence, 312 h, 125 g ai/ha, scale 0-100): 60%
Corn plant response rating (crop injury, 0 = no effect, 100 = complete kill) at 250 g/ha ([4]; Zea mays, pre-emergence, 312 h, 250 g ai/ha, scale 0 to 100 (0 no effect, 100 complete control), visual, 12 to 14 days): 80%
Plant response rating (0 = no effect, 100 = complete control), Crabgrass, Large ([5]; 62 g ai/ha, preemergence): 75
pest or weed control at 125 g/ha ([5]; Digitaria sanguinalis, pre-emergence, 312 h, 125 g ai/ha, scale 0-100, read-out: Plant response rating, Crabgrass, Large): 95%
pest or weed control at 250 g/ha ([5]; Digitaria sanguinalis, pre-emergence, 312 h, 250 g ai/ha, scale 0 to 100 (0 no effect, 100 complete control), visual, 12 to 14 days, read-out: Plant response rating, Crabgrass, Large): 95%
Crabgrass, Large plant response rating [5, 16]: 100
Plant response rating (0 = no effect, 100 = complete control), Foxtail, Giant ([6]; 62 g ai/ha, preemergence): 60
Foxtail, Giant plant response rating [6, 16]: 100
pest or weed control at 125 g/ha ([6]; Setaria faberi, pre-emergence, 312 h, 125 g ai/ha, scale 0-100, read-out: Plant response rating, Foxtail, Giant): 80%
pest or weed control at 250 g/ha ([6]; Setaria faberi, pre-emergence, 312 h, 250 g ai/ha, scale 0 to 100 (0 no effect, 100 complete control), visual, 12 to 14 days, read-out: Plant response rating, Foxtail, Giant): 85%
Plant response rating (0 = no effect, 100 = complete control), Kochia ([7]; 62 g ai/ha, preemergence): 100
pest or weed control at 125 g/ha ([7]; Bassia scoparia, pre-emergence, 125 g ai/ha, scale 0-100, read-out: Plant response rating, Kochia): 100%
pest or weed control at 250 g/ha ([7]; Bassia scoparia, pre-emergence, 250 g ai/ha, scale 0 to 100 (0 no effect, 100 complete control), visual, 12 to 14 days, read-out: Plant response rating, Kochia): 100%
Kochia plant response rating [7, 16]: 100
Plant response rating (0 = no effect, 100 = complete control), Morningglory ([8]; 62 g ai/ha, preemergence): 0
pest or weed control at 250 g/ha ([8]; Ipomoea, pre-emergence, 250 g ai/ha, scale 0 to 100 (0 no effect, 100 complete control), visual, 12 to 14 days, read-out: Plant response rating, Morningglory): 30%
Morningglory plant response rating [8, 16]: 70
Plant response rating (0 = no effect, 100 = complete control), Ragweed ([9]; 62 g ai/ha, preemergence): 100
pest or weed control at 250 g/ha ([9]; Ambrosia artemisiifolia, pre-emergence, 250 g ai/ha, scale 0 to 100 (0 no effect, 100 complete control), visual, 12 to 14 days, read-out: Plant response rating, Ragweed): 100%
Ragweed plant response rating [9, 16]: 100
Plant response rating (0 = no effect, 100 = complete control), Sunflower ([10]; 62 g ai/ha, preemergence): 0
pest or weed control at 250 g/ha ([10]; Helianthus annuus, pre-emergence, 250 g ai/ha, scale 0 to 100 (0 no effect, 100 complete control), visual, 12 to 14 days, read-out: Plant response rating, Sunflower): 100%
Sunflower plant response rating [10, 16]: 100
plant injury at 62 g/ha ([11]; 62 g ai/ha, scale 0 to 100 (0 no effect, 100 complete control), read-out: Rice plant response rating): 40%
plant injury at 125 g/ha ([11]; 125 g ai/ha, scale of 0 to 100, 0 is no effect, 100 is complete control, read-out: Rice plant response rating): 80%
plant injury at 250 g/ha ([11]; 250 g ai/ha, visual rating after 12 to 14 days, scale 0 to 100 (0 no effect, 100 complete control), read-out: Plant response rating, Rice): 80%
plant injury at 500 g/ha ([11]; 500 g ai/ha, visual rating after 12 to 14 days, scale 0 to 100 (0 no effect, 100 complete control), read-out: Plant response rating, Rice): 90%
pest or weed control at 62 g/ha ([12]; 62 g ai/ha, scale 0 to 100 (0 no effect, 100 complete control), read-out: Sedge, Umbrella plant response rating): 70%
pest or weed control at 125 g/ha ([12]; 125 g ai/ha, scale of 0 to 100, 0 is no effect, 100 is complete control, read-out: Sedge, Umbrella plant response rating): 90%
pest or weed control at 250 g/ha ([12]; 250 g ai/ha, visual rating after 12 to 14 days, scale 0 to 100 (0 no effect, 100 complete control), read-out: Plant response rating, Sedge, Umbrella): 90%
pest or weed control at 500 g/ha ([12]; 500 g ai/ha, visual rating after 12 to 14 days, scale 0 to 100 (0 no effect, 100 complete control), read-out: Plant response rating, Sedge, Umbrella): 90%
pest or weed control at 62 g/ha ([13]; 62 g ai/ha, scale 0 to 100 (0 no effect, 100 complete control), read-out: Ducksalad plant response rating): 80%
pest or weed control at 125 g/ha ([13]; 125 g ai/ha, scale of 0 to 100, 0 is no effect, 100 is complete control, read-out: Ducksalad plant response rating): 90%
pest or weed control at 250 g/ha ([13]; 250 g ai/ha, visual rating after 12 to 14 days, scale 0 to 100 (0 no effect, 100 complete control), read-out: Plant response rating, Ducksalad): 90%
pest or weed control at 500 g/ha ([13]; 500 g ai/ha, visual rating after 12 to 14 days, scale 0 to 100 (0 no effect, 100 complete control), read-out: Plant response rating, Ducksalad): 100%
